Assay results as given in patent US4351822A, “Quantitative testing for vitamin B12” (University Patents, Inc., priority 1979, dated 1982).

Key:
[1] = biological target: T1, Human R protein (Human R) (Homo sapiens, UniProt P20061); assay: Radioisotope dilution (RID) radiobinding assay for vitamin B12, Human R binder; assay type: binding; conditions: 500 pg added to human serum in the dark, 15 min incubation, standard extraction
T1 construct: from tissue; host or cells: human saliva
T1 sequence (P20061 24-433): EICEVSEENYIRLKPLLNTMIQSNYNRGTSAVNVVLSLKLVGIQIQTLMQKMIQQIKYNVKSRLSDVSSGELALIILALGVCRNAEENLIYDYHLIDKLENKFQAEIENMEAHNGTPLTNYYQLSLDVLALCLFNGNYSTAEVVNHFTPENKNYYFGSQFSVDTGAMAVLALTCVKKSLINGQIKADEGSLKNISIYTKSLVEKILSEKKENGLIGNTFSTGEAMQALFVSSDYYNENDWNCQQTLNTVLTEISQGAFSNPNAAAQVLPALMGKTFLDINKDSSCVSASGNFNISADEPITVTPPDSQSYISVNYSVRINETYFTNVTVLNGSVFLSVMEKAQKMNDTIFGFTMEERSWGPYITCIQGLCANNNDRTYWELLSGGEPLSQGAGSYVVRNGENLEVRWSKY
Method: (§1) Each of the RID assays referred to herein utilized the components referred to above. That is, components A, B, C, etc. or the buffer, albumin, and salt, respectively, etc. were added in the order, from left to right, shown in Table 1.
(§2) After the addition of ^57 Co-B12 the components are mixed thoroughly to mix both the naturally occurring B12 and the radioisotope B12 to make them compete and equally available to react with the binder. After the addition of the binder, H, the components were again mixed thoroughly, and then incubated for 45 minutes at about 37° C. Charcoal was then added to the incubated mixture and the components again mixed thoroughly and incubated for another 5 minutes at room temperature. This was followed by centrifuging at 2000×g at 4° C. for 30 minutes. Then 1000 ul of the resulting supernatant liquid is pipetetted from the sample and a determination of the amount of ^57 Co-B12 present is made. The amount of ^57 Co-B12 is indicative of the amount of natural B12 in the tested sample, with lesser amounts of ^57 Co-B12 being indicative of greater amounts of natural vitamin B12 in the sample.
(§3) (1) The values in tubes 3 and 4, the "blank" tubes without binder are averaged and subtracted from all other tubes starting with tube 5.
(§4) (2) The background radiation is subtracted from tubes 1 and 2 and these values are averaged.
(§5) (3) Tubes 5 and 6 are averaged. This value should be at least 15% below the average value for tubes 1 and 2 to insure that all of the binder is saturated in the presence of (^57 Co) B12 alone.
(§6) (4) Values for each tube beginning with tube 7 are divided by the average of tubes 5 and 6 to give values for "% trace binding."
(§7) (5) Percent trace binding for tubes 7-14 are used to obtain a standard curve. We plot % trace binding on the ordinate of logit-log paper versus pg vitamin B12 on the log scale.
(§8) (6) The amount of vitamin B12 in unknown samples is determined by interpolation from the standard curve or data of % trace binding versus pg vitamin B12. […]

[2] = biological target: Human intrinsic factor (Human IF) (Homo sapiens, UniProt P27352); assay: Radioisotope dilution (RID) radiobinding assay for vitamin B12, Human IF binder; assay type: binding; conditions: 500 pg added to human serum in the dark, 15 min incubation, standard extraction
Method: as §1, §2, §3, §4, §5, §6, §7, §8

Chain of Human intrinsic factor (Human IF) (P27352 19-417): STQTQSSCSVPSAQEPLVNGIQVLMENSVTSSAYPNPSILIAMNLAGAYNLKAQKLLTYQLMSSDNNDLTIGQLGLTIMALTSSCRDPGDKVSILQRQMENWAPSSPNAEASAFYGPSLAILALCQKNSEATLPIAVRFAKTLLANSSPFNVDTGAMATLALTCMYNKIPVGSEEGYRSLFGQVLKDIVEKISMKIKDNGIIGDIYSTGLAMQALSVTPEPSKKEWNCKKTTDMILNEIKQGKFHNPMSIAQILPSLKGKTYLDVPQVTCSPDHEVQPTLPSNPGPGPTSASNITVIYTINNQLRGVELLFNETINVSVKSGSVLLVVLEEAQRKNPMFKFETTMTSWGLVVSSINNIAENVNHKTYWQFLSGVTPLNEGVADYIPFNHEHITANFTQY

| increase in the apparent amount of vitamin B12, RID with human R protein [1] | increase in the apparent amount of vitamin B12, RID with human IF protein [2] | Compound |
| --- | --- | --- |
| about 500 pg | about 500 pg | C/C1=C2/[N-][C@H]([C@H](CC(N)=O)[C@@]2(C)CCC(=O)NC[C@@H](C)OP(=O)([O-])O[C@H]2[C@@H](O)[C@@H](n3cnc4cc(C)c(C)cc43)O[C@@H]2CO)[C@]2(C)N=C(/C(C)=C3N=C(/C=C4N=C1[C@@H](CCC(N)=O)C\4(C)C)[C@@H](CCC(N)=O)[C@]\3(C)CC(N)=O)[C@@H](CCC(N)=O)[C@]2(C)CC(N)=O.[Co+3].[OH-] [OH-B12] |
| about 500 pg | about 500 pg | C/C1=C2/[N-]C([C@H](CC(N)=O)[C@@]2(C)CCC(=O)NC[C@@H](C)OP(=O)([O-])O[C@H]2[C@@H](O)[C@@H](n3cnc4cc(C)c(C)cc43)O[C@@H]2CO)[C@]2(C)N=C(/C(C)=C3N=C(/C=C4N=C1[C@@H](CCC(N)=O)C\4(C)C)[C@@H](CCC(N)=O)[C@]\3(C)CC(N)=O)[C@@H](CCC(N)=O)[C@]2(C)CC(N)=O.[CH2-][C@H]1O[C@@H](n2cnc3c(N)ncnc32)[C@@H](O)[C@@H]1O.[Co+3] [adenosyl-B12] |
| about 500 pg | about 500 pg | CH3 -B12 |
